# What was measured:
# Assay in all cases: relative viability (nuclei count vs DMSO), 5 days (fraction); higher = more cells survive
# Sulindac + OSI-027 = compound: CC1=C(CC(=O)O)c2cc(F)ccc2/C1=C\c1ccc([S+](C)[O-])cc1 [Sulindac] + COc1cccc2cc(-c3nc([C@H]4CC[C@H](C(=O)O)CC4)n4ncnc(N)c34)[nH]c12 [OSI-027] (partner 0.5 µM)
# Method in brief: (§1)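 The day after seeding in 1536-well plates, lung cancer cell lines were treated by pin tool with a single drug, or with a fixed anchor-drug dose together with five library-drug doses (not always all listed) in √10 steps. After 5 days, a combined fix-and-stain solution (final 0.05% Triton X-100, 1% formaldehyde, 1 ug/ml Hoechst) was added. Nuclei counted on 4× images gave relative viability as treated counts over vehicle counts, reported as the median of duplicate plates.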
# [1] = compound: O=c1[nH]cc(F)c(=O)[nH]1 [5-Fluorouracil] + C[C@@H](Oc1cc(-c2cnn(C3CCNCC3)c2)cnc1N)c1c(Cl)ccc(F)c1Cl [Crizotinib] (partner 1 µM)
# Method in brief: as §1
# [2] = compound: O=c1[nH]cc(F)c(=O)[nH]1 [5-Fluorouracil] + O=C(CCCCCCC(=O)Nc1ccccc1)NO [Vorinostat] (partner 1 µM)
# Method in brief: as §1
# [3] = compound: CN[C@@H]1C[C@H]2O[C@@](C)([C@@H]1OC)n1c3ccccc3c3c4c(c5c6ccccc6n2c5c31)C(=O)NC4 [Staurosporine] + Cc1cc(Nc2cc(N3CCN(C)CC3)nc(Sc3ccc(NC(=O)C4CC4)cc3)n2)n[nH]1 [Tozasertib] (partner 0.1 µM)
# Method in brief: as §1
Cell Line,relative viability (Sulindac + OSI-027; first compound 0.08 µM),relative viability (Sulindac + OSI-027; first compound 0.253 µM),relative viability (Sulindac + OSI-027; first compound 2.53 µM),relative viability (Sulindac + OSI-027; first compound 8 µM),relative viability ([1]; first compound 0.02 µM),relative viability ([1]; first compound 0.2 µM),relative viability ([1]; first compound 0.6325 µM),relative viability ([1]; first compound 2 µM),relative viability ([2]; first compound 0.02 µM),relative viability ([2]; first compound 0.2 µM),relative viability ([2]; first compound 0.6325 µM),relative viability ([2]; first compound 2 µM),relative viability ([3]; first compound 0.005 µM),relative viability ([3]; first compound 0.01581 µM),relative viability ([3]; first compound 0.05 µM),relative viability ([3]; first compound 0.1581 µM),relative viability ([3]; first compound 0.5 µM),relative viability (Sulindac + OSI-027; first compound 0.8 µM)
NCI-H2087,0.67,0.595,0.46,0.567,0.921,0.817,0.541,0.509,0.801,0.924,0.515,0.367,0.189,0.206,0.102,0.0977,0.0926,
NCI-H596,0.798,0.761,0.77,0.772,0.971,0.788,0.64,0.578,0.668,0.553,0.397,0.384,1.02,0.735,0.572,0.36,0.288,0.76
Calu-6,,,,,0.872,0.859,0.693,0.427,,,,,,,,,,
LCLC-103H,0.558,0.499,0.496,0.555,1.1,1.11,0.883,0.566,0.808,0.829,0.673,0.469,0.534,0.207,0.174,0.128,0.146,0.388
HCC-15,0.77,0.716,0.634,0.667,0.867,0.782,0.499,0.269,0.952,0.912,0.554,0.327,0.379,,0.166,0.0982,0.0697,0.526
H3255,0.523,0.622,0.576,0.593,0.835,0.846,0.831,0.561,0.798,0.77,0.734,0.537,0.504,0.337,0.203,0.239,0.145,0.474
NCI-H1915,0.764,0.688,0.678,0.625,0.819,0.949,0.824,0.619,0.404,0.493,0.587,0.407,0.45,0.229,0.217,0.108,0.154,
NCI-H1563,0.754,0.784,0.703,0.784,0.798,0.806,0.892,0.699,,,,,,,,,,0.762
NCI-H650,0.506,0.523,0.545,0.566,0.61,0.589,0.46,0.421,0.414,0.309,0.264,0.251,0.451,0.238,0.278,0.193,0.181,0.523
NCI-H2126,0.578,0.698,0.741,0.771,0.962,0.528,0.341,0.307,0.59,0.296,0.279,0.262,0.658,0.494,0.348,0.247,0.226,0.674

# Source: the supplement of paper PMC10307832
